Measurements as given in PubChem BioAssay (NCI).
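Cells were grown in 96-well plates and exposed to each compound for 48 hours at five concentrations; endpoints were interpolated linearly between bracketing concentrations, or set to the highest concentration if not reached. At the GI50, growth is halved. TGI: concentration producing complete growth inhibition.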

Assays:
Assay in all cases: NCI anticancer screen, dose series, 48 h
[1] = test system: ACHN renal
[2] = test system: SW-620 colon
[3] = test system: OVCAR-4 ovarian
[4] = test system: UACC-257 melanoma
[5] = test system: MCF7 breast
[6] = test system: KM12 colon
[7] = test system: SK-OV-3 ovarian
[8] = test system: NCI-H522 lung
[9] = test system: SK-MEL-5 melanoma
[10] = test system: HCT-116 colon

Structure (SMILES)	GI50 [1]	TGI [1]	GI50 [2]	TGI [2]	GI50 [3]	TGI [3]	GI50 [4]	TGI [4]	GI50 [5]	TGI [5]	GI50 [6]	TGI [6]	GI50 [7]	TGI [7]	GI50 [8]	TGI [8]	GI50 [9]	TGI [9]	TGI [10]	GI50 [10]
CCNCCCn1c2c(c3ccc([N+](=O)[O-])cc3c1=O)C(=O)c1cc(OC)cnc1-2	0.0313 µM	0.144 µM	0.0653 µM	3.57 µM	0.176 µM	1.49 µM	0.157 µM	0.92 µM	0.0186 µM	1.37 µM	0.197 µM	0.505 µM	0.0589 µM	1.62 µM	0.0361 µM	0.898 µM	0.078 µM	0.234 µM	–	–
CC(=O)OC1Oc2ccccc2-c2oc(=O)c(-c3cc4ccccc4oc3=O)cc21 (stereo unspecified)	14.1 µM	29.6 µM	65 µM	> 100 µM	23.1 µM	50.9 µM	14.1 µM	36.6 µM	15.3 µM	34.1 µM	41.4 µM	> 100 µM	13.7 µM	30 µM	18.5 µM	36.3 µM	24.8 µM	57.8 µM	–	–
C/C(=N\N=C(N)N)C(CN(C)C)C(c1ccccc1)c1c(O)c2ccccc2oc1=O (stereo unspecified)	–	> 100 µM	–	> 100 µM	–	> 100 µM	–	> 100 µM	–	> 100 µM	–	> 100 µM	–	> 100 µM	–	> 100 µM	–	> 100 µM	> 100 µM	–
Cc1c(N=Cc2ccc(N(CCC#N)CCC#N)cc2)c(=O)n(-c2ccccc2)n1C	–	69.1 µM	–	> 100 µM	–	> 100 µM	–	> 100 µM	–	> 100 µM	–	> 100 µM	–	> 100 µM	–	> 100 µM	–	> 100 µM	> 100 µM	–
COc1cc(OC)c(C(=O)/C=C/c2cccc(OC(C)=O)c2)cc1CC=C(C)C	10.1 µM	29.2 µM	7.02 µM	18.5 µM	5.73 µM	> 50 µM	10.4 µM	36.8 µM	2.54 µM	44 µM	7.16 µM	14.8 µM	10.9 µM	28.2 µM	8.76 µM	22.2 µM	6.47 µM	13.3 µM	9.78 µM	3 µM
CN1CCN(c2ccc(C(=O)Nc3cc(-c4cccc(NS(=O)(=O)c5ccccc5)c4)[nH]n3)cc2)CC1	7.6 µM	26.7 µM	5.86 µM	27.2 µM	6.42 µM	28.7 µM	11.2 µM	27 µM	3.25 µM	16.9 µM	0.0293 µM	13.8 µM	11.7 µM	30.9 µM	3.29 µM	13.2 µM	4.17 µM	9.23 µM	17.4 µM	4.68 µM
O=[N+]([O-])c1ccc(Cl)cc1N/N=C/c1cccc2cccnc12	–	> 100 µM	–	> 100 µM	–	> 100 µM	–	> 100 µM	–	> 100 µM	–	> 100 µM	–	> 100 µM	–	> 100 µM	–	> 100 µM	> 100 µM	–
Cn1c(=O)c(Oc2ccccc2)cc2cnc(NC3CCOCC3)nc21	> 25 µM	> 25 µM	> 25 µM	> 25 µM	> 25 µM	> 25 µM	> 25 µM	> 25 µM	> 25 µM	> 25 µM	> 25 µM	> 25 µM	> 25 µM	> 25 µM	> 25 µM	> 25 µM	> 25 µM	> 25 µM	> 25 µM	> 25 µM
